This note sets out measurements from patent publication US7144880B2, “Compositions relating to novel compounds and targets thereof” (Regents of the University of Michigan, priority 2003, dated 2006).

The test system of assay [1] is sub-mitochondrial particles. Nature of the assay: Redox cycling, NADH and NAD(P)H oxidation assays with sub-mitochondrial particles. In kind it is biochemical. The following applies: SMPs. On the procedure:
By contrast, replacing the hydroxyl with chlorine or azide, or methylating the phenol effectively abolishes the cytotoxic activity of Bz-423. […] Such agents accept an electron from MRC enzymes and transfer it back to the chain at point of higher reducing potential. This type of ‘redox cycling’ consumes endogenous reducing equivalents (e.g., glutathione) along with […] nucleotides and results in cell death. To distinguish between these alternatives, it was determined whether Bz-423 redox cycles in the presence of sub-mitochondrial particles using standard NADH and NAD(P)H oxidation assays.

Assay [2] has as its system ovarian cells with null p53 (SKOV3). The assay can be described thus: Antiproliferation, 72 h, media with 10% FBS. In kind it is cell-based. The following applies: SKOV3, 72 h, read-out: ED50 (μM) for antiproliferation. On the procedure:
(§1) Like most 1,4-benzodiazepines, Bz-423 binds strongly to bovine serum albumin (BSA), which reduces the effective concentration of drug free in solution. For example, in tissue culture media containing 10% (v/v) fetal bovine serum (FBS), ca. 99% of the drug is bound to BSA. Therefore, cell culture cytotoxicity assays are conducted in media with 2% FBS to reduce binding to BSA and increase the free [Bz-423]. Under these conditions, the dose response-curve is quite sharp such that there is a limited concentration range at which Bz-423 is only partly effective. Since some benzodiazepines are known to have anti-proliferative properties, the effect of Bz-423 at concentrations <ED50 were carefully analyzed and observed that in addition to inducing apoptosis, Bz-423 prevented cell growth after 3 d in culture. In these low serum conditions, the cytotoxic and anti-proliferative effects overlapped making it difficult to study each effect independently. […] While higher amounts of drug may also block proliferation, it caused apoptosis well before the effects on proliferation could be observed.
(§2) To confirm the decrease in cell number relative to control cells after 3 d of treatment is due to decreased proliferation and not cell death balanced by proliferation, in addition to cell counting, cell divisions were studied. PKH-67 is a fluorescent probe that binds irreversibly to cell membranes and upon cell division is partitioned equally between the daughter cells, making it possible to quantify cell division by flow cytometry. Ramos cells stained with PKH67 and treated with Bz-423 had fewer cell divisions at sub-cytotoxic concentrations which confirmed that the decrease in cell number was due to anti-proliferative affects and not cell death. To determine if Bz-423 induced anti-proliferation was specific to Ramos cells, cell counting and cell cycle experiments were done in other B cell lines and cell lines derived from solid tumors.

For assay [3], the system named is neuroblastoma cell line Lan-1. The assay can be described thus: Antiproliferation, 72 h, media with 10% FBS. The format is cell-based. The settings on record: Lan-1, 72 h, read-out: ED50 (μM) for antiproliferation. On the procedure: as §1, §2
Assay [4] concerns malignant B cell line Raji. The assay can be described thus: Antiproliferation, 72 h, media with 10% FBS. In kind it is cell-based. The following applies: read-out: ED50 (μM) for antiproliferation. On the procedure:
as §1, §2

Assay [5] relates to malignant B cell line CA46. Nature of the assay: Antiproliferation, 72 h, media with 10% FBS. In kind it is cell-based. The following applies: CA46, 72 h, read-out: ED50 (μM) for antiproliferation. As for the experimental part:
as §1, §2

With `CN1C(=O)C(Cc2ccc3ccccc3c2)N=C(c2ccc(O)cc2)c2cc(Cl)ccc21` (centres unmarked) [Bz-423], in assay [1], the “Redox cycling (substrate oxidation)” value is “does not lead to substrate oxidation”. The EC50 in assay [2] worked out at 18.2 µM; in assay [3], 13.7 µM; in assay [4], 12.9 µM; in assay [5], 13.4 µM.
